We go through three sequences from patent US9777045B2, “Immunogenic compositions and methods” (Longhorn Vaccines and Diagnostics, LLC, priority 2007, dated 2017).

The subject of experiment [1] is live H3N2 virus. The class given is in vivo, cotton rats (Sigmodon hispidus). As to conditions: rat, in vivo.
Experiment [2] relates to live H1N1 virus. Also noted: species or system cotton rats (Sigmodon hispidus). As to conditions: rat, in vivo.
Experiment [3] relates to Influenza H3N2 (Wuhan). Also noted: species or system cotton rats (Sigmodon hispidus). As to conditions: rat, in vivo.
Experiment [4] has as its system peptide corresponding to the peptide-BSA conjugate used for injection. The experiment in a line: ELISA for anti-peptide antibodies (individual mouse sera 1:100). The class given is in vivo, mice. As to conditions: for Average Absorbance Values of sera for tested peptides, Day 14 / Average Absorbance Values of sera for tested peptides, Day 29 / Average Absorbance Values of sera for tested peptides, Day 42 / Average Absorbance Values of sera for tested peptides, Pre: group average; for Average Absorbance Values of sera for tested peptides, Day 14 / Average Absorbance Values of sera for tested peptides, Day 29 / Average Absorbance Values of sera for tested peptides, Day 42 / Average Absorbance Values of sera for tested peptides, Pre / Individual absorbancy values of sera for tested peptides, Day 14 / Individual absorbancy values of sera for tested peptides, Day 29 / Individual absorbancy values of sera for tested peptides, Day 42: mice; for Average Absorbance Values of sera for tested peptides, Pre / Individual absorbancy values of sera for tested peptides, Pre: pre-bleed; for Individual absorbancy values of sera for tested peptides, Pre: mice injected with peptide-BSA conjugate, absorbance 450 nm; for Individual absorbancy values of sera for tested peptides, Pre / Individual absorbancy values of sera for tested peptides, Day 14 / Individual absorbancy values of sera for tested peptides, Day 29 / Individual absorbancy values of sera for tested peptides, Day 42: sera 1:100. As for the experimental part:
Individual sera were tested at a final dilution of 1:100 (in PBS-T) on Nunc Maxisorp® plates coated with the peptide corresponding to the peptide-BSA conjugate used for injection, at a concentration of 1 μg/ml in PBS (100 μl/well). One hundred microliters of diluted sera were reacted on the coated plate for 30 to 60 min at room temperature, and unbound material was removed by washing three times with PBS-T. Anti-peptide antibodies were detected with peroxidase-labeled goat anti-mouse IgG (γ-specific), diluted 1:10000 in PBS-T (100 μl/well; Jackson ImmunoResearch Laboratories, Inc., West Grove, Pa., USA). Following 30-min incubation, the wells were washed five times with PBS-T to removed unbound material and 100 μl of substrate (TMB; Kirkegaard & Perry Laboratories, Inc., Gaithersburg, Md., USA) was added to each well. The reaction was allowed to proceed for 15 min in the dark and stopped by addition of 100 μl of TMB Stop Solution per well (Kirkegaard & Perry). Absorbance was determined at 450 nm.

For experiment [5], the system named is live Wuhan (Influenza A/Wuhan/359/95, H3N2). The experiment in a line: ELISA for anti-Wuhan antibodies (mouse sera 1:100). The class given is in vivo, mice. As to conditions: sera 1:100; for Absorbance values for individual sera tested on influenzavirus strain Wuhan, Pre: mice, pre-bleed; for Anti-Wuhan Absorbance Day 42 (group average) / Anti-Wuhan Absorbance Pre-Bleed (group average): averaged results.

In experiment [6] the test system is IL-4 induction in splenocytes. The class given is cell-based. As to conditions: mice immunized with peptide-BSA conjugates; 72 h in vitro treatment.
In experiment [7] the test system is Influenza H1N1, H3N2, and H5N1. As to conditions: in vivo.
Experiment [8] has as its system IFN-γ induction in splenocytes. The class given is cell-based. As to conditions: mice immunized with peptide-BSA conjugates; 72 h in vitro treatment.
Setting [9] is: 5 μg per injection, listed as 1911.

“And” between values parts separate entries of the source, which are not always exact repeats. Identical values can stand only once.

Regarding “SLLTEVETPIRNEWGLLTEVETPIRQYIKANSKFIGITE [PF2001]”, in experiment [1], the “IgG titers to live H3N2 virus (ELISA)” value is “superior to two injections of M2e” and the “IgG to live H3N2 virus after peptide boost of primed animals (ELISA)” value was “equivalent titer to group 6”. Moreover, the “IgG antibody against live H1N1 virus (ELISA)” value in experiment [2] is recorded as “IgG antibody rises were also induced”. In addition, in experiment [3], the “viral inhibitory antibody to H3N2 after peptide boost” value is given as “boosted viral inhibitory antibody to H3N2”.
“GNLFIAPGNLFIAPQYIKANSKFIGITEGNLFIAP [Peptide 5907]”: in experiment [4] (5 μg per injection), the “Average Absorbance Values of sera for tested peptides, Day 14” value (from here on “Average Absorbance Values of sera … Day 14”) worked out at 0.077; the “Average Absorbance Values of sera for tested peptides, Day 29” value (“Average Absorbance Values of sera … Day 29” for short) is recorded as 0.107; the “Average Absorbance Values of sera for tested peptides, Day 42” value (“Average Absorbance Values of sera … Day 42” for short) came to 0.134; the “Average Absorbance Values of sera for tested peptides, Pre” value (“Average Absorbance Values of sera … Pre” for short) came out at 0.078. Also, in experiment [4] (5 μg per injection), the “Individual absorbancy values of sera for tested peptides, Pre” value (from here on “Individual absorbancy values of sera … Pre”) is 0.080 and 0.073 and 0.084 and 0.075; the “Individual absorbancy values of sera for tested peptides, Day 14” value (“Individual absorbancy values … Day 14” for short) is 0.096 and 0.061 and 0.079 and 0.073; the “Individual absorbancy values of sera for tested peptides, Day 29” value (“Individual absorbancy values … Day 29” below) was 0.160 and 0.098 and 0.099 and 0.071; the “Individual absorbancy values of sera for tested peptides, Day 42” value (shortened to “Individual absorbancy values … Day 42”) is 0.165 and 0.099 and 0.139. Further, in experiment [4] (20 μg per injection), the “Average Absorbance Values of sera … Day 14” value was 0.080; the “Average Absorbance Values of sera … Day 29” value came out at 0.097; the “Average Absorbance Values of sera … Day 42” value is reported as 0.165; the “Average Absorbance Values of sera … Pre” value stood at 0.083. In experiment [4] (20 μg per injection), the “Individual absorbancy values of sera … Pre” value was 0.065 and 0.077 and 0.082 and 0.108; the “Individual absorbancy values … Day 14” value is 0.069 and 0.072 and 0.088 and 0.090; the “Individual absorbancy values … Day 29” value was 0.073 and 0.080 and 0.141 and 0.093; the “Individual absorbancy values … Day 42” value is 0.114 and 0.161 and 0.230 and 0.156. The “Absorbance values for individual sera tested on influenzavirus strain Wuhan, Pre” value in experiment [5] (5 μg per injection) is 0.084 and 0.062 and 0.068 and 0.063. Moreover, the “Absorbance values for individual sera tested on influenzavirus strain Wuhan, Pre” value in experiment [5] (20 μg per injection) was 0.097 and 0.102 and 0.071 and 0.091. Besides, in experiment [5] (dose per inject 5 μg), the “Anti-Wuhan Absorbance Day 42 (individual mice)” value was 0.212 and 0.082 and 0.250 and 0.039; the “Anti-Wuhan Absorbance Pre-Bleed (individual mice)” value was 0.084 and 0.062 and 0.068 and 0.063. Further, in experiment [5] (dose per inject 20 μg), the “Anti-Wuhan Absorbance Day 42 (individual mice)” value was 0.394 and 0.174 and 0.119 and 0.224; the “Anti-Wuhan Absorbance Pre-Bleed (individual mice)” value was 0.087 and 0.102 and 0.071 and 0.091. In experiment [5] (dose per injection 5 μg), the “Anti-Wuhan Absorbance Day 42 (group average)” value stood at 0.146 and the “Anti-Wuhan Absorbance Pre-Bleed (group average)” value came out at 0.069. Moreover, in experiment [5] (dose per injection 20 μg), the “Anti-Wuhan Absorbance Day 42 (group average)” value came out at 0.227 and the “Anti-Wuhan Absorbance Pre-Bleed (group average)” value is recorded as 0.088. In addition, in experiment [6], the “IL-4 response of spleen cell supernatants (in words)” value is “below the result of the untreated control”. Moreover, in experiment [7], the “immune response against Influenza H1N1, H3N2, and H5N1” value was “raises an immune response”.
Regarding HYEECSCY [Peptide 5911], in experiment [4] (5 μg per injection), the “Average Absorbance Values of sera … Day 14” value was 0.264; the “Average Absorbance Values of sera … Day 29” value turned out to be 0.213; the “Average Absorbance Values of sera … Day 42” value came out at 0.347; the “Average Absorbance Values of sera … Pre” value is 0.156. Further, in experiment [4] (5 μg per injection), the “Individual absorbancy values of sera … Pre” value is 0.126 and 0.187 and 0.137; the “Individual absorbancy values … Day 14” value is 0.184 and 0.503 and 0.154; the “Individual absorbancy values … Day 29” value is 0.201 and 0.303 and 0.188; the “Individual absorbancy values … Day 42” value was 0.392 and 0.497 and 0.300. For the same sequence, in experiment [4] (20 μg per injection), the “Average Absorbance Values of sera … Day 14” value is listed as 0.171; the “Average Absorbance Values of sera … Day 29” value is on record as 0.229; the “Average Absorbance Values of sera … Day 42” value turned out to be 0.342; the “Average Absorbance Values of sera … Pre” value stood at 0.132. In addition, in experiment [4] (20 μg per injection), the “Individual absorbancy values of sera … Pre” value was 0.099 and 0.109 and 0.151 and 0.121; the “Individual absorbancy values … Day 14” value is 0.102 and 0.136 and 0.106 and 0.123; the “Individual absorbancy values … Day 29” value is 0.145 and 0.240 and 0.152 and 0.170; the “Individual absorbancy values … Day 42” value was 0.180 and 0.304 and 0.218 and 0.158. In experiment [4] (setting [9]), the “Individual absorbancy values of sera … Pre” value is listed as 0.174; the “Individual absorbancy values … Day 14” value was found to be 0.216; the “Individual absorbancy values … Day 29” value is on record as 0.161; the “Individual absorbancy values … Day 42” value was determined as 0.199. Moreover, the “Absorbance values for individual sera tested on influenzavirus strain Wuhan, Pre” value in experiment [5] (5 μg per injection) was 0.060 and 0.073 and 0.063 and 0.067. Moreover, the “Absorbance values for individual sera tested on influenzavirus strain Wuhan, Pre” value in experiment [5] (20 μg per injection) is 0.065 and 0.069 and 0.084 and 0.070. For the same sequence, in experiment [5] (dose per inject 5 μg), the “Anti-Wuhan Absorbance Day 42 (individual mice)” value was 0.154 and 0.174 and 0.136 and 0.165; the “Anti-Wuhan Absorbance Pre-Bleed (individual mice)” value is 0.067 and 0.060 and 0.073 and 0.063. In experiment [5] (dose per inject 20 μg), the “Anti-Wuhan Absorbance Day 42 (individual mice)” value is 0.747 and 0.194 and 0.154 and 0.134; the “Anti-Wuhan Absorbance Pre-Bleed (individual mice)” value was 0.065 and 0.069 and 0.084 and 0.070. In addition, in experiment [5] (dose per injection 5 μg), the “Anti-Wuhan Absorbance Day 42 (group average)” value amounted to 0.157 and the “Anti-Wuhan Absorbance Pre-Bleed (group average)” value stood at 0.065. Moreover, in experiment [5] (dose per injection 20 μg), the “Anti-Wuhan Absorbance Day 42 (group average)” value was determined as 0.307 and the “Anti-Wuhan Absorbance Pre-Bleed (group average)” value stood at 0.072. The “IFN-γ response of spleen cell supernatants (in words)” value in experiment [8] was “Weaker responses”.
